Data reported in patent US20200077656A1, “Use of an Acyclic Picolinamide Compound as a Fungicide for Control of Phytopathogenic Fungi in Row Crops” (priority 2017, published 2020).
Read-outs that look alike come from different tables or passages of the source.

How the values were obtained:
[1] = system: Cercosporidium personatum; experiment: Field assessment of Cercosporidium personatum (MYCOBE) in peanut; assay type: in vivo; settings: Table 9, late leaf spot of peanut, AUDPC based
[2] = system: peanut (ARHHY, Arachis hypogaea); experiment: Yield of peanut in Sclerotium rolfsii field trials; assay type: in vivo; settings: 49 DAAD
Puccinia polysora = experiment: Field assessment of Puccinia polysora (PUCCPY) in corn; assay type: in vivo; settings: EC + Trycol adjuvant
Ramularia collo-cygni = experiment: Field assessment of Ramularia collo-cygni (RAMUCC) on barley; assay type: in vivo; settings: 5% EC + Trycol adjuvant, winter barley
Experimental: Field Assessment of Ramularia […]) on Barley: A fungicidal treatment containing a 5% EC formulation of compound I, tanked mixed with an adjuvant (Trycol, 50% w/w at 0.1% v/v), was sprayed on barley plants (winter barley; Cassia variety) at BBCH 33 growth stage of winter barley (5% infection on L5 at application), under natural infection of Ramularia leaf spot of barley. […] Disease severity was recorded as a percentage of visual diseased foliage on whole plot. Ramularia leaf spot of barley infection was assessed three times at 7, 14 and 21 days after the last application. The disease infection was recorded following EPPO PP1/26 guideline prescriptions. Area under the disease progress curve (AUDPC) was calculated for each plot using the sets of recorded severity data. Relative AUDPC (% control based on AUDPC) was calculated as percent of the nontreated control.

Sclerotium rolfsii = experiment: Field assessment of Sclerotium rolfsii (SCLORO) in peanut, percent stem incidence; settings: 42 DAAD, untreated 41.8
Experimental: Four applications, at two week intervals were made to each trial, starting at growth stage BBCH66 and continuing through BBCH84. The experimental plots were conducted with natural infestation of the pathogen. The treatment was part of an experimental trial designed as a randomized complete block (RCB) with four replications and a plot of approximately 6×40 ft.
Percent stem incidence (percent of stems with any disease, based on 80 stems counted per plot) was assessed at 42 days after application D (42 DAAD).

Magnaporthe grisea = assay type: in vivo; settings: two applications, EC + Trycol adjuvant, rice
Pyrenophora teres = experiment: Field assessment of Pyrenophora teres (PYRNTE) on barley, Trial 1 (inoculated); assay type: in vivo; settings: EC + Trycol
Source text: Field Assessment of Pyrenophora teres ([…]) on Barley: A fungicidal treatment containing an EC formulation of compound I, tanked mixed with an adjuvant (Trycol, 50% w/w at 0.1% v/v), was sprayed on barley plants (spring barley; […] variety) twice, the first application at BBCH 37-43 growth stages of spring barley (0.01% infection on L1 at application) and the second application at growth stages 53-57 of spring barley (6.25% infection at application). […] The experimental plots were inoculated with net blotch of barley (1,000,000 spores/mL) at growth stage 39 of spring barley 1 day after the first […]. […] Disease severity was recorded as a percentage of visual diseased foliage on whole plot. Net blotch of barley infection was assessed three times at 7, 14 and 21 days after the last application. The disease infection was recorded following EPPO PP1/26 guideline prescriptions. Area under the disease progress curve (AUDPC) was calculated for each plot using the sets of recorded severity data. Relative AUDPC (% control based on AUDPC) was calculated as percent of the nontreated control.

Cercospora arachidicola = experiment: Field assessment of Cercospora arachidicola (MYCOAR) in peanut; assay type: in vivo; settings: Table 8, early leaf spot of peanut, AUDPC based
[3] = 50 g/ha, Agnique BP420 200 mL/ha
[4] = 75 g/ha, Agnique BP420 300 mL/ha
[5] = 100 g/ha, Adsee C80W 80% 250 g/ha
[6] = 100 g/ha, Agnique BP420 400 mL/ha
[7] = 150 g/ha, Agnique BP420 600 mL/ha

COc1ccnc(C(=O)N[C@@H](C)C(=O)O[C@@H](C)C(c2ccc(F)cc2)c2ccc(F)cc2)c1OC(C)=O [Compound I, (S)-1,1-bis(4-fluorophenyl)propan-2-yl (3-acetoxy-4-methoxypicolinoyl)-L-alaninate]
Calc Percent Control of MYCOBE [1, 3]: 28.5% | Calc Percent Control of MYCOBE ([1]; 50 g/ha, MSO 100 g/ha): 24.0% | Calc Percent Control of MYCOBE [1, 4]: 30.0% | Calc Percent Control of MYCOBE ([1]; 75 g/ha, MSO 150 g/ha): 26.8% | Calc Percent Control of MYCOBE [1, 5]: 26.9% | Calc Percent Control of MYCOBE [1, 6]: 36.0% | Calc Percent Control of MYCOBE ([1]; 100 g/ha, MSO 200 g/ha): 29.0% | Calc Percent Control of MYCOBE [1, 7]: 44.7% | Calc Percent Control of MYCOBE ([1]; 150 g/ha, MSO 300 g/ha): 38.5% | ARHHY Yield Percent of Untreated [2, 3]: 96.4% | ARHHY Yield Percent of Untreated ([2]; 50 g/ha, MSO 100 g/ha): 104.9% | ARHHY Yield Percent of Untreated [2, 4]: 113.9% | ARHHY Yield Percent of Untreated ([2]; 75 g/ha, MSO 150 g/ha): 112.8% | ARHHY Yield Percent of Untreated [2, 5]: 122.0% | ARHHY Yield Percent of Untreated [2, 6]: 118.0% | ARHHY Yield Percent of Untreated ([2]; 100 g/ha, MSO 200 g/ha): 115.7% | ARHHY Yield Percent of Untreated [2, 7]: 130.0% | ARHHY Yield Percent of Untreated ([2]; 150 g/ha, MSO 300 g/ha): 131.5% | Disease control of PUCCPY, percent control based on AUDPC (Puccinia polysora; 50 g ai/ha): C (26-50) | Disease control of PUCCPY, percent control based on AUDPC (Puccinia polysora; 100 g ai/ha): B (51-75) | Disease control of PUCCPY, percent control based on AUDPC (Puccinia polysora; 150 g ai/ha): B (51-75) | Disease control of RAMUCC, percent control based on AUDPC (Ramularia collo-cygni; 75 g ai/ha): C (26-50) | Disease control of RAMUCC, percent control based on AUDPC (Ramularia collo-cygni; 100 g ai/ha): C (26-50) | Disease control of RAMUCC, percent control based on AUDPC (Ramularia collo-cygni; 150 g ai/ha): B (51-75) | Calc Percent Stem Incidence of SCLORO (Sclerotium rolfsii; [3]): 41.6% | Calc Percent Stem Incidence of SCLORO (Sclerotium rolfsii; 50 g/ha, MSO 100 g/ha): 39.1% | Calc Percent Stem Incidence of SCLORO (Sclerotium rolfsii; [4]): 33.2% | Calc Percent Stem Incidence of SCLORO (Sclerotium rolfsii; 75 g/ha, MSO 150 g/ha): 33.0% | Calc Percent Stem Incidence of SCLORO (Sclerotium rolfsii; [6]): 27.9% | Calc Percent Stem Incidence of SCLORO (Sclerotium rolfsii; 100 g/ha, MSO 200 g/ha): 28.2% | Calc Percent Stem Incidence of SCLORO (Sclerotium rolfsii; [7]): 29.6% | Calc Percent Stem Incidence of SCLORO (Sclerotium rolfsii; 150 g/ha, MSO 300 g/ha): 24.7% | Disease control of PYRIOR, percent control based on AUDPC (Magnaporthe grisea; 50 g ai/ha): C (26-50) | Disease control of PYRIOR, percent control based on AUDPC (Magnaporthe grisea; 100 g ai/ha): C (26-50) | Disease control of PYRIOR, percent control based on AUDPC (Magnaporthe grisea; 150 g ai/ha): B (51-75) | Disease control of PYRIOR, percent control based on AUDPC (Magnaporthe grisea; 200 g ai/ha): B (51-75) | % Control (AUDPC) of PYRNTE, Trial 1 (Pyrenophora teres; 75 g ai/ha): B (51-75) | % Control (AUDPC) of PYRNTE, Trial 1 (Pyrenophora teres; 100 g ai/ha): B (51-75) | % Control (AUDPC) of PYRNTE, Trial 1 (Pyrenophora teres; 150 g ai/ha): B (51-75) | Calc Percent Control of MYCOAR (Cercospora arachidicola; [3]): 31.5% | Calc Percent Control of MYCOAR (Cercospora arachidicola; 50 g/ha, MSO 100 g/ha): 32.0% | Calc Percent Control of MYCOAR (Cercospora arachidicola; [4]): 35.6% | Calc Percent Control of MYCOAR (Cercospora arachidicola; 75 g/ha, MSO 150 g/ha): 36.3% | Calc Percent Control of MYCOAR (Cercospora arachidicola; [5]): 40.3% | Calc Percent Control of MYCOAR (Cercospora arachidicola; [6]): 44.8% | Calc Percent Control of MYCOAR (Cercospora arachidicola; 100 g/ha, MSO 200 g/ha): 44.4% | Calc Percent Control of MYCOAR (Cercospora arachidicola; [7]): 57.7% | Calc Percent Control of MYCOAR (Cercospora arachidicola; 150 g/ha, MSO 300 g/ha): 52.3%
